Values quoted from earlier work as cited in US8114422B2, “Methods and compositions for reducing skin damage” (The General Hospital Corporation, priority 2005, dated 2012).
Read-outs that look alike come from different tables or passages of the source.

What was measured:
PDGF receptor kinase = conditions: read-out: IC50 PDGF receptor (tyrosine) kinase
[1] = system: mitochondrial membrane potential

Row | Compound | IC50 (PDGF receptor kinase) | depolarization of mitochondrial membrane potential ([1]; treatment of cells at 10 μM) | depolarization of mitochondrial membrane potential ([1]; treatment of cells at 100 nm)
1 | COc1cc2ncc(-c3ccccc3)nc2cc1OC [AG-1296, 6,7-Dimethoxy-3-phenylquinoxaline] | 1 µM | – | –
2 | N#CC(C#N)=NNc1ccc(OC(F)(F)F)cc1 [FCCP, Carbonylcyanide-4-(trifluoromethoxy)-phenylhydrazone] | – | complete (10 μM) | partial (100 nm) or
3 | N#CC(=Cc1ccc2[nH]ccc2c1)C(N)=C(C#N)C#N [AG-370] | 20 µM | – | –
